Legend:
Rattus norvegicus [1] = organism: Rattus norvegicus; assay: DrugMatrix - Regimen: Daily Repeat; type: toxicity, organism-based, Sprague-Dawley; design: regimen Daily Repeat, gender Male, age 6-8 weeks; details: in vivo, po, 500 mg/kg, route oral GAVAGE, dose level High, vehicle .5 % CMC
Rattus norvegicus [2] = organism: Rattus norvegicus; type: toxicity, organism-based, Sprague-Dawley; details: in vivo, po, 500 mg/kg, 24 h, route oral GAVAGE, dose level High, time 1 day, vehicle .5 % CMC
Description: DrugMatrix - Regimen: Single

[3] = […], tissue Plasma, time 14 day

For Clc1ccccc1 [CHLOROBENZENE], the “URIC ACID” value (Rattus norvegicus [1]; 120 h, tissue Plasma, time 5 day) was 1.8 mg/dL, the “ABSOLUTE BASOPHIL” value (Rattus norvegicus [1]; […], tissue Blood, time 14 day) was 0 CELLS/uL and the “ABSOLUTE EOSINOPHIL” value (Rattus norvegicus [1]; […], tissue Blood, time 14 day) was 209.6 CELLS/uL. For the same compound, the “ABSOLUTE LYMPHOCYTE” value (Rattus norvegicus [1]; […], tissue Blood, time 14 day) was 11694.6 CELLS/uL, the “ABSOLUTE MONOCYTE” value (Rattus norvegicus [1]; […], tissue Blood, time 14 day) was 390 CELLS/uL and the “ABSOLUTE SEGMENTED NEUTROPHIL” value (Rattus norvegicus [1]; […], tissue Blood, time 14 day) was 1365.8 CELLS/uL. The BASOPHIL (Rattus norvegicus [1]; […], tissue Blood, time 14 day) was 0%, the EOSINOPHIL (Rattus norvegicus [1]; […], tissue Blood, time 14 day) was 1.4% and the “ERYTHROCYTE COUNT” value (Rattus norvegicus [1]; […], tissue Blood, time 14 day) was 6.07 x10E6/uL. For the same compound, the HEMATOCRIT (Rattus norvegicus [1]; […], tissue Blood, time 14 day) was 35.18%, the HEMOGLOBIN (Rattus norvegicus [1]; […], tissue Blood, time 14 day) was 13 G/DL and the “LEUKOCYTE COUNT” value (Rattus norvegicus [1]; […], tissue Blood, time 14 day) was 13.86 x10E3/uL. The LYMPHOCYTE (Rattus norvegicus [1]; […], tissue Blood, time 14 day) was 85.2%, the “MEAN CORPUSCULAR HEMOGLOBIN” value (Rattus norvegicus [1]; […], tissue Blood, time 14 day) was 21.48 pg and the “MEAN CORPUSCULAR HEMOGLOBIN CONCENTRATION” value (Rattus norvegicus [1]; […], tissue Blood, time 14 day) was 37 G/DL. For the same compound, the “MEAN CORPUSCULAR VOLUME” value (Rattus norvegicus [1]; […], tissue Blood, time 14 day) was 58.06 fL, the MONOCYTE (Rattus norvegicus [1]; […], tissue Blood, time 14 day) was 3% and the NEUTROPHIL (Rattus norvegicus [1]; […], tissue Blood, time 14 day) was 10.4%. The “NUCLEATED RED BLOOD CELLS” value (Rattus norvegicus [1]; […], tissue Blood, time 14 day) was 0 /100WBC, the “PLATELET COUNT” value (Rattus norvegicus [1]; […], tissue Blood, time 14 day) was 916.8 x10E3/uL and the “ALANINE AMINOTRANSFERASE” value (Rattus norvegicus [1]; [3]) was 59 u/L. The ALBUMIN (Rattus norvegicus [1]; [3]) was 4.22 G/DL, the “ALKALINE PHOSPHATASE” value (Rattus norvegicus [1]; [3]) was 464.4 u/L and the “ASPARTATE AMINOTRANSFERASE” value (Rattus norvegicus [1]; [3]) was 88.8 u/L. The “BLOOD UREA NITROGEN” value (Rattus norvegicus [1]; [3]) was 16 mg/dL, the “CARBON DIOXIDE” value (Rattus norvegicus [1]; [3]) was 28.4 mmol/L and the CHLORIDE (Rattus norvegicus [1]; [3]) was 102.2 MEQ/L. It also gave a CHOLESTEROL (Rattus norvegicus [1]; [3]) of 70.2 mg/dL, a CREATININE (Rattus norvegicus [1]; [3]) of 0.16 mg/dL and a GLUCOSE (Rattus norvegicus [1]; [3]) of 130.8 mg/dL. The “LACTATE DEHYDROGENASE” value (Rattus norvegicus [1]; [3]) was 283.8 u/L, the LIPASE (Rattus norvegicus [1]; [3]) was 10.2 u/L and the PHOSPHORUS (Rattus norvegicus [1]; [3]) was 11.26 mg/dL. For the same compound, the POTASSIUM (Rattus norvegicus [1]; [3]) was 6.64 MEQ/L, the SODIUM (Rattus norvegicus [1]; [3]) was 147.56 MEQ/L and the “TOTAL BILIRUBIN” value (Rattus norvegicus [1]; [3]) was 0.28 mg/dL. The “TOTAL PROTEIN” value (Rattus norvegicus [1]; [3]) was 6.16 G/DL, the “URIC ACID” value (Rattus norvegicus [1]; [3]) was 1.56 mg/dL and the “ABSOLUTE EOSINOPHIL” value (Rattus norvegicus [2]; tissue Blood) was 0 CELLS/uL. The “ABSOLUTE LYMPHOCYTE” value (Rattus norvegicus [2]; tissue Blood) was 9295.67 CELLS/uL, the “ABSOLUTE MONOCYTE” value (Rattus norvegicus [2]; tissue Blood) was 616 CELLS/uL and the “ABSOLUTE SEGMENTED NEUTROPHIL” value (Rattus norvegicus [2]; tissue Blood) was 1621.67 CELLS/uL. The BASOPHIL (Rattus norvegicus [2]; tissue Blood) was 0%, the EOSINOPHIL (Rattus norvegicus [2]; tissue Blood) was 0% and the “ERYTHROCYTE COUNT” value (Rattus norvegicus [2]; tissue Blood) was 6.3 x10E6/uL. For the same compound, the HEMATOCRIT (Rattus norvegicus [2]; tissue Blood) was 39.37%, the HEMOGLOBIN (Rattus norvegicus [2]; tissue Blood) was 14.03 G/DL and the “LEUKOCYTE COUNT” value (Rattus norvegicus [2]; tissue Blood) was 11.53 x10E3/uL. The LYMPHOCYTE (Rattus norvegicus [2]; tissue Blood) was 80.67%, the “MEAN CORPUSCULAR HEMOGLOBIN” value (Rattus norvegicus [2]; tissue Blood) was 22.3 pg and the “MEAN CORPUSCULAR HEMOGLOBIN CONCENTRATION” value (Rattus norvegicus [2]; tissue Blood) was 35.67 G/DL. The “MEAN CORPUSCULAR VOLUME” value (Rattus norvegicus [2]; tissue Blood) was 62.53 fL, the MONOCYTE (Rattus norvegicus [2]; tissue Blood) was 5.33% and the NEUTROPHIL (Rattus norvegicus [2]; tissue Blood) was 14%. The “NUCLEATED RED BLOOD CELLS” value (Rattus norvegicus [2]; tissue Blood) was 0 /100WBC, the “PLATELET COUNT” value (Rattus norvegicus [2]; tissue Blood) was 1230.33 x10E3/uL and the “ALANINE AMINOTRANSFERASE” value (Rattus norvegicus [2]; tissue Plasma) was 176 u/L. For the same compound, the ALBUMIN (Rattus norvegicus [2]; tissue Plasma) was 4.43 G/DL, the “ALKALINE PHOSPHATASE” value (Rattus norvegicus [2]; tissue Plasma) was 416.33 u/L and the “ASPARTATE AMINOTRANSFERASE” value (Rattus norvegicus [2]; tissue Plasma) was 280 u/L. The “BLOOD UREA NITROGEN” value (Rattus norvegicus [2]; tissue Plasma) was 20 mg/dL, the “CARBON DIOXIDE” value (Rattus norvegicus [2]; tissue Plasma) was 28.67 mmol/L and the CHLORIDE (Rattus norvegicus [2]; tissue Plasma) was 99.33 MEQ/L. It also gave a CHOLESTEROL (Rattus norvegicus [2]; tissue Plasma) of 69.67 mg/dL, a CREATININE (Rattus norvegicus [2]; tissue Plasma) of 0.23 mg/dL and a GLUCOSE (Rattus norvegicus [2]; tissue Plasma) of 154.33 mg/dL. For the same compound, the “LACTATE DEHYDROGENASE” value (Rattus norvegicus [2]; tissue Plasma) was 419.67 u/L, the LIPASE (Rattus norvegicus [2]; tissue Plasma) was 10.67 u/L and the PHOSPHORUS (Rattus norvegicus [2]; tissue Plasma) was 12.9 mg/dL. For the same compound, the POTASSIUM (Rattus norvegicus [2]; tissue Plasma) was 5.56 MEQ/L, the SODIUM (Rattus norvegicus [2]; tissue Plasma) was 146.57 MEQ/L and the “TOTAL BILIRUBIN” value (Rattus norvegicus [2]; tissue Plasma) was 0.23 mg/dL. For the same compound, the “TOTAL PROTEIN” value (Rattus norvegicus [2]; tissue Plasma) was 6.53 G/DL and the “URIC ACID” value (Rattus norvegicus [2]; tissue Plasma) was 1.4 mg/dL.
